Results: patent US20200095296A1, “USE OF PEPTIDES AS BIOMARKERS IN THE DIAGNOSIS, CONFIRMATION AND TREATMENT OF A NEUROLOGICAL DISORDER AND TCR AND/OR HLA IMMUNOPROFILING IN NEURODEGENERATIVE DISEASE” (THE TRUSTEES OF COLUMBIA UNIVERSITY IN THE CITY OF NEW YORK, priority 2017, published 2020)

Assays:
[1] = system: PBMC; assay: IFNγ and IL-5 dual ELISPOT after 14 days culture of PBMC with α-syn peptide pools; format: cell-based, human; details: IFNγ and IL-5 ELISPOT
Experimental: To determine whether α-syn derived peptides were recognized by T cells, responses were assayed to pools that each contained ˜twenty 9-10aa peptides predicted to bind common HLA class I types 15, and 15aa peptides spanning the protein that could elicit HLA class II responses. PBMCs from PD and HC were stimulated for 14 days, and IFNγ and IL-5 responses were measured by dual color ELISPOT, enabling quantification of responsive cells. Positive pools were deconvoluted to identify the peptides eliciting cytokine responses. IFNγ was used as a representative cytokine to detect CD8+/HLA class I and CD4+ Th1/Class II T cells, and IL-5 as a representative cytokine secreted by CD4+ Th2/Class II T cells. […] No cells producing both IL-5 and IFNγ were detected. […]
After 14 days of culture with individual peptide pools (5 μg/ml), the response to pools and individual peptides (5 μg/ml) was measured by IFNγ and IL-5 dual ELISPOT 37. […]
To determine whether α-syn-derived peptides were recognized by T cells, responses to pools that each contained approximately twenty peptides of 9-10 amino acids (a.a.) predicted to bind common HLA class I types, (Vita, R. et al. The immune epitope database (IEDB) 3.0. Nucleic Acids Res. 43, D405-D412 (2015)) and peptides of 15 amino acids spanning the protein that could elicit HLA class II responses were assayed. […] No cells producing both IL-5 and IFNγ were detected. […]

[2] = target: HLA A*11:01 (Homo sapiens, UniProt P04439, A114D/D185E/E176A/F33Y/L180Q/S129P/T187R); assay: competition binding assay, purified HLA A*11:01 molecules; details: in vitro

binding to purified HLA A*11:01 molecules (IC50) [2] | Sequence | cytokine response elicited [1] | cytokine response elicited ([1]; listed as GKEGVLYVGSKTK)
– | GKTKEGVLYVGSKTK [α-syn 15 mer aa31-45, Y39 region] | apparent Class II restricted IL-5 and IFNγ response | apparent class II restricted IL-5 and IFNy response
bound poorly | GVLYVGSKTK [α-syn 10 mer aa36-45] | – | –
bound poorly | VLYVGSKTKK [10 mer aa37-46] | – | –
